Experimental data taken from ChEMBL document CHEMBL2407046, “Synthesis of 2α-heteroarylalkyl active vitamin d3 with therapeutic effect on enhancing bone mineral density in vivo” (ACS Med Chem Lett, 2013).

What was measured:
[1] = test system: Rattus norvegicus; experiment: Toxicity in ovariectomized Sprague-Dawley rat osteoporosis model assessed as increase in serum Ca level at 0.02 mg/kg/day administered 5 times a week for 4 weeks measured 24 hrs post last dose (reference value: 9.25 +/- 0.11 mg/dL); type: organism-based; settings: in vivo
[2] = test system: Rattus norvegicus; experiment: Toxicity in ovariectomized Sprague-Dawley rat osteoporosis model assessed as increase in serum Ca level at 0.007 mg/kg/day administered 5 times a week for 4 weeks measured 24 hrs post last dose (reference value: 9.25 +/- 0.11 mg/dL); type: organism-based; settings: in vivo
[3] = test system: Rattus norvegicus; experiment: Antiosteoporotic activity in ovariectomized Sprague-Dawley rat osteoporosis model assessed as increase in bone mineral density in spine at 0.02 mg/kg/day administered 5 times a week for 4 weeks measured 24 hrs post last dose by dual X-ray absorption meter (reference value: 0.209 +/- 0.011 g/cm'2); type: functional
[4] = test system: Rattus norvegicus; experiment: Antiosteoporotic activity in ovariectomized Sprague-Dawley rat osteoporosis model assessed as increase in bone mineral density in spine at 0.007 mg/kg/day administered 5 times a week for 4 weeks measured 24 hrs post last dose by dual X-ray absorption meter (reference value: 0.209 +/- 0.011 g/cm'2); type: functional
[5] = target: T1, Vitamin D3 receptor (Homo sapiens, UniProt P11473); experiment: Transactivation of VDR-mediated osteocalcin promoter in human HOS/SF cells after 24 hrs by luciferase reporter gene assay; type: cell-based
T1 sequence (P11473 whole entry): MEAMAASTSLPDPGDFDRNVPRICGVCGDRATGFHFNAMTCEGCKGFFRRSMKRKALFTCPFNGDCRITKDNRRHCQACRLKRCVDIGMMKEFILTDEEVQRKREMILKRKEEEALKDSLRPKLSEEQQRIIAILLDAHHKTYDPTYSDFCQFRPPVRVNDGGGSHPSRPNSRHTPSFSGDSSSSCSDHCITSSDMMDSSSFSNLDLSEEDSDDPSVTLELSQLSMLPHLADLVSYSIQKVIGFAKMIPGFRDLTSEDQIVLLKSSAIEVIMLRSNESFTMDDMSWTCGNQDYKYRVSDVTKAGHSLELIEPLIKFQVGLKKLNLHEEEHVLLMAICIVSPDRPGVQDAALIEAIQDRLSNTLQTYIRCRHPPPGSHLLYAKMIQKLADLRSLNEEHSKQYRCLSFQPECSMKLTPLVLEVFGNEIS

[6] = test system: Rattus norvegicus; experiment: Toxicity in ovariectomized Sprague-Dawley rat osteoporosis model assessed as increase in serum Ca level at 0.1 mg/kg/day administered 5 times a week for 4 weeks measured 24 hrs post last dose (reference value: 9.14 +/- 0.24 mg/dL); type: organism-based; settings: in vivo
[7] = test system: Rattus norvegicus; experiment: Toxicity in ovariectomized Sprague-Dawley rat osteoporosis model assessed as increase in serum Ca level at 0.025 mg/kg/day administered 5 times a week for 4 weeks measured 24 hrs post last dose (reference value: 9.14 +/- 0.24 mg/dL); type: organism-based; settings: in vivo
[8] = test system: Rattus norvegicus; experiment: Antiosteoporotic activity in ovariectomized Sprague-Dawley rat osteoporosis model assessed as increase in bone mineral density in spine at 0.1 mg/kg/day administered 5 times a week for 4 weeks measured 24 hrs post last dose by dual X-ray absorption meter (reference value: 0.209 +/- 0.019 g/cm'2); type: functional
[9] = test system: Rattus norvegicus; experiment: Antiosteoporotic activity in ovariectomized Sprague-Dawley rat osteoporosis model assessed as increase in bone mineral density in spine at 0.025 mg/kg/day administered 5 times a week for 4 weeks measured 24 hrs post last dose by dual X-ray absorption meter (reference value: 0.209 +/- 0.019 g/cm'2); type: functional

C=C1/C(=C\C=C2/CCC[C@]3(C)[C@@H]([C@H](C)CCCC(C)(C)O)CC[C@@H]23)C[C@@H](O)[C@H](CCn2ncnn2)[C@@H]1O
Activity [1]: 9.66 mg/dL | Activity [2]: 9.41 mg/dL | Activity [3]: 0.223 g/cm2 | Activity [4]: 0.214 g/cm2 | EC50 [5]: 0.01 nM

C=C1/C(=C\C=C2/CCC[C@]3(C)[C@@H]([C@H](C)CCCC(C)(C)O)CC[C@@H]23)C[C@@H](O)[C@H](CCn2cnnn2)[C@@H]1O
EC50 [5]: 0.29 nM

C=C1/C(=C\C=C2/CCC[C@]3(C)[C@@H]([C@H](C)CCCC(C)(C)O)CC[C@@H]23)C[C@@H](O)[C@H](CCn2cncn2)[C@@H]1O
EC50 [5]: 0.15 nM

C=C1/C(=C\C=C2/CCC[C@]3(C)[C@@H]([C@H](C)CCCC(C)(C)O)CC[C@@H]23)C[C@@H](O)[C@H](CCn2nccn2)[C@@H]1O
EC50 [5]: 0.044 nM

C=C1/C(=C\C=C2/CCC[C@]3(C)[C@@H]([C@H](C)CCCC(C)(C)O)CC[C@@H]23)C[C@@H](O)[C@H](CCn2ccnn2)[C@@H]1O
EC50 [5]: 0.21 nM

C=C1/C(=C\C=C2/CCC[C@]3(C)[C@@H]([C@H](C)CCCC(C)(C)O)CC[C@@H]23)C[C@@H](O)[C@H](CCn2ccnc2)[C@@H]1O
EC50 [5]: 0.68 nM

C=C1/C(=C\C=C2/CCC[C@]3(C)[C@@H]([C@H](C)CCCC(C)(C)O)CC[C@@H]23)C[C@@H](O)C[C@@H]1O [CALCITRIOL]
Activity [6]: 10.35 mg/dL | Activity [7]: 10.14 mg/dL | Activity [8]: 0.228 g/cm2 | Activity [9]: 0.218 g/cm2
